Consider 42 compounds from US10167300B2, “Metalloenzyme inhibitor compounds as fungicides” (priority 2014, dated 2019).

Read-outs that look alike come from different tables or passages of the source. A value given as a limit tells only on which side of the number the result lay.

A short description of this assay: Type B (low volume, EC formulation, track sprayer 200 L/ha) assay, leaf blotch of wheat, SEPTTR field isolate (FI SEPTTR). The assay is classed as in vivo, Mycosphaerella graminicola on wheat plants (variety Yuma). The note with it: Zymoseptoria tritici, 72 h, 100 g/ha. On the procedure: Example A: Evaluation of Fungicidal Activity: Leaf Blotch of Wheat (Mycosphaerella graminicola; Anamorph: Septoria tritici; Bayer Code SEPTTR)
For Type A assays, technical grades of the experimental fungicides in Table 4 below were dissolved in acetone, and then mixed with nine volumes of water containing 110 ppm Triton X-100. The fungicide solutions were applied onto wheat seedlings using an automated booth sprayer. For Type B assays, emulsifiable concentrate (EC) formulations of technical grades of the experimental fungicides in Table 4 below were prepared at 10% (w/v), and then mixed with 150 volumes of 0.1% Trycol 5941. These solutions were applied onto wheat seedlings using an automated track sprayer at 200 L/ha. All sprayed plants were allowed to air dry prior to further handling.
Wheat plants (variety Yuma) were grown from seed in a greenhouse in 50% mineral soil/50% soil-less Metro mix until the first leaf was fully emerged, with 7-10 seedlings per pot. Prior to or after application of experimental fungicides, plants were inoculated either with spores of a standard laboratory SEPTTR isolate (SI SEPTTR) or with spores from a SEPTTR field isolate collected from Wellsbourne, England in 2012 (FI SEPTTR). After inoculation the plants were kept for 3 days at 20° C. in 100% relative humidity (one day in a dark dew chamber followed by two days in a lighted dew chamber). Plants were then transferred to a 20° C. greenhouse for disease development. When disease symptoms were fully expressed on untreated plants, infection levels on treated plants were assessed on a scale of 0 to 100 percent disease severity. Percent disease control was calculated using the ratio of disease severity on treated plants relative to untreated plants.

Where [1] appears, read: field isolate, low volume EC, 3 Day Curative, wheat (Yuma), read-out: Disease Control, FI SEPTTR Type B Assay (100 g/ha) 3 DC.
[2] abbreviates: field isolate, low volume EC, 3 Day Protectant, wheat (Yuma), read-out: Disease Control, FI SEPTTR Type B Assay (100 g/ha) 3 DP.
The mark [3] stands for this setting: SEPTTR field isolate, low volume Type B assay, 3 Day Curative, wheat leaf blotch, read-out: Disease Control, FI SEPTTR Type B Assay (100 g/ha) 3 DC.
Where [4] appears, read: SEPTTR field isolate, low volume Type B assay, 3 Day Protectant, wheat leaf blotch, read-out: Disease Control, FI SEPTTR Type B Assay (100 g/ha) 3 DP.

`CC(C)(C)C(O)(Cc1cncnc1)c1ccc(-c2ccc(OCC(F)(F)F)nc2)cn1` (stereo not drawn) [Compound 195]: the pest or weed control at 100 g/ha under setting [1] was below 40% and the pest or weed control at 100 g/ha under setting [2] was 40 to 59%.
For the compound `COc1ncncc1C(O)(c1ccc(-c2ccc(OC(F)(F)F)cc2C)cn1)C(C)(C)C` (stereo not drawn) [Compound 222], the pest or weed control at 100 g/ha lay within 40 to 59% under setting [1] and 60 to 79% under setting [2].
In the case of `COc1ncncc1C(O)(c1ccc(-c2ccc(Cl)cc2)cn1)C(C)(C)C` (stereo not drawn) [Compound 247], the pest or weed control at 100 g/ha is, setting by setting: under setting [1], below 40%; under setting [2], 80 to 100%.
`CCOC(c1cncnc1)(c1ccc(-c2ccc(OC(F)(F)F)cc2)cn1)C(C)(C)C` (stereo not drawn) [Compound 198]: the pest or weed control at 100 g/ha under setting [1] was below 40% and the pest or weed control at 100 g/ha under setting [2] was 80 to 100%.
For `CC(C)(C)c1ccc(-c2ccc(C(O)(Cc3cccnc3)C(C)(C)C)nc2)cc1` (stereo not drawn) [Compound 201], the pest or weed control at 100 g/ha runs as follows: under setting [1], 60 to 79%; under setting [2], 80 to 100%.
`CC(C)(C#N)c1ccc(-c2ccc(C(O)(c3cncnc3)C(C)(C)C)nc2)nc1` (stereo not drawn) [Compound 183]: the pest or weed control at 100 g/ha by setting is: under setting [1], 80 to 100%; under setting [2], 80 to 100%.
Turning to `OC(c1cncnc1)(c1ccc(-c2ccc(OC(F)(F)F)cc2F)cn1)C1CC1` (stereo not drawn) [Compound 184], the pest or weed control at 100 g/ha is below 40% under setting [1] and 40 to 59% under setting [2].
The matching figures for `COC(c1cncnc1)(c1ccc(-c2ccc(OC(F)(F)F)cc2F)cn1)C1CC1` (stereo not drawn) [Compound 200]: below 40% and 80 to 100%.
In the case of `Cc1cc(OC(F)(F)F)ccc1-c1ccc(C(O)(c2cnccn2)C(C)(C)C)nc1` (stereo not drawn) [Compound 224], the pest or weed control at 100 g/ha lay within 40 to 59% under setting [1] and 60 to 79% under setting [2].
On the same counts, the results for `CC(C)(C)C(O)(c1cncnc1)c1ccc(-c2ccc(I)cc2)cn1` (stereo not drawn) [Compound 165, 1-(5-(4-iodophenyl)pyridin-2-yl)-2,2-dimethyl-1-(pyrimidin-5-yl)propan-1-ol] are 80 to 100% and 80 to 100%.
The matching figures for `COC(c1cncnc1)(c1ccc(-c2ccc(OCC(F)(F)F)nc2)cn1)C(C)(C)C` (stereo not drawn) [Compound 253]: 80 to 100% and 80 to 100%.
On to `CC#CC(O)(c1cncnc1)c1ccc(-c2ccc(OC(F)(F)F)cc2)cn1` (stereo not drawn) [Compound 266], for which the pest or weed control at 100 g/ha is, setting by setting: under setting [3], below 40%; under setting [4], 60 to 79%.
In the case of `CCC(OC)(c1cncnc1)c1ccc(-c2ccc(OC(F)(F)F)cc2F)cn1` (stereo not drawn) [Compound 269], the pest or weed control at 100 g/ha under setting [3] fell in the range of 40 to 59% and the pest or weed control at 100 g/ha under setting [4] lay in the range of 80 to 100%.
As to `CCC(C#N)(CC)c1ccc(-c2ccc(C(O)(c3cncnc3)C(C)(C)C)nc2)c(C)c1` (stereo not drawn) [Compound 264], the pest or weed control at 100 g/ha fell in the range of 80 to 100% under setting [3] and 80 to 100% under setting [4].
In the case of `COC(c1cncnc1)(c1ccc(-c2ccc(OC(F)(F)F)cc2C)cn1)C(C)(C)C` (stereo not drawn) [Compound 261], the pest or weed control at 100 g/ha by setting is: under setting [3], 80 to 100%; under setting [4], 80 to 100%.
For `CCOC(CC)(c1cncnc1)c1ccc(-c2ccc(OC(F)(F)F)cc2F)cn1` (stereo not drawn) [Compound 190], the pest or weed control at 100 g/ha fell in the range of 60 to 79% under setting [1] and 40 to 59% under setting [2].
For `CC(C)(C)C(O)(c1cncnc1)c1ccc(-c2c(F)cc(OC(F)(F)F)cc2F)cn1` (stereo not drawn) [Compound 210], the pest or weed control at 100 g/ha was 80 to 100% under setting [1] and 80 to 100% under setting [2].
For the compound `CC#CC(OC)(c1cncnc1)c1ccc(-c2ccc(OC(F)(F)F)cc2)cn1` (stereo not drawn) [Compound 217], the pest or weed control at 100 g/ha by setting is: under setting [1], below 40%; under setting [2], below 40%.
On to `COC(c1cncnc1)(c1ccc(-c2ccc(C(C)(C)C#N)cc2F)cn1)C(C)(C)C` (stereo not drawn) [Compound 228], for which the pest or weed control at 100 g/ha under setting [1] is 80 to 100% and the pest or weed control at 100 g/ha under setting [2] fell in the range of 80 to 100%.
On to `C#CCOC(CC)(c1cncnc1)c1ccc(-c2ccc(OC(F)(F)F)cc2)cn1` (stereo not drawn) [Compound 260], for which the pest or weed control at 100 g/ha runs as follows: under setting [3], below 40%; under setting [4], 40 to 59%.
For the compound `CC#CC(OCC)(c1cncnc1)c1ccc(-c2ccc(OC(F)(F)F)cc2F)cn1` (stereo not drawn) [Compound 204], the pest or weed control at 100 g/ha by setting is: under setting [1], below 40%; under setting [2], 60 to 79%.
The matching figures for `C#CCOC(c1cncnc1)(c1ccc(-c2ccc(OC(F)(F)F)cc2F)cn1)C(C)C` (stereo not drawn) [Compound 191]: below 40% and 80 to 100%.
On to `COC(c1cncnc1)(c1ccc(-c2ccc(OC(F)(F)F)cc2)cn1)C(C)C` (stereo not drawn) [Compound 194], for which the pest or weed control at 100 g/ha by setting is: under setting [1], below 40%; under setting [2], 80 to 100%.
Regarding `COC(C)(c1cncnc1)c1ccc(-c2ccc(OC(F)(F)F)cc2)cn1` (stereo not drawn) [Compound 241], the pest or weed control at 100 g/ha by setting is: under setting [1], below 40%; under setting [2], 40 to 59%.
As for `CC(C)(C)C(O)(Cc1cncnc1)c1ccc(-c2ccc(SC(F)(F)F)cc2)cn1` (stereo not drawn) [Compound 219], the pest or weed control at 100 g/ha under setting [1] is 40 to 59% and the pest or weed control at 100 g/ha under setting [2] lay in the range of 60 to 79%.
For the compound `CCC(O)(c1cncnc1)c1ccc(-c2ccc(OC(F)(F)F)cc2)cn1` (stereo not drawn) [Compound 258], the pest or weed control at 100 g/ha runs as follows: under setting [3], below 40%; under setting [4], 60 to 79%.
For the compound `CC(C)(C)C(O)(Cc1cccnc1)c1ccc(-c2ccc(C3(C#N)CC3)cc2)cn1` (stereo not drawn) [Compound 227], the pest or weed control at 100 g/ha was below 40% under setting [1] and 40 to 59% under setting [2].
As to `CCc1cc(C(C)(C)C#N)ccc1-c1ccc(C(O)(c2cncnc2)C(C)(C)C)nc1` (stereo not drawn) [Compound 179], the pest or weed control at 100 g/ha is, setting by setting: under setting [1], 80 to 100%; under setting [2], 80 to 100%.
Turning to `Cc1cc(C(C)(C)C#N)cnc1-c1ccc(C(O)(c2cncnc2)C(C)(C)C)nc1` (stereo not drawn) [Compound 239], the pest or weed control at 100 g/ha reads like this: under setting [1], 80 to 100%; under setting [2], 80 to 100%.
`CC#CC(O)(c1cncnc1)c1ccc(-c2ccc(OC(F)(F)F)cc2F)cn1` (stereo not drawn) [Compound 185]: the pest or weed control at 100 g/ha runs as follows: under setting [1], below 40%; under setting [2], 80 to 100%.
On the same counts, the results for `COc1ncncc1C(O)(c1ccc(-c2ccc(C(C)(C)C#N)cc2F)cn1)C(C)(C)C` (stereo not drawn) [Compound 256] are 80 to 100% and 80 to 100%.
In the case of `COC(c1cncnc1)(c1ccc(-c2ccc(C3(C#N)CC3)cc2)cn1)C(C)(C)C` (stereo not drawn) [Compound 192], the pest or weed control at 100 g/ha lay in the range of 80 to 100% under setting [1] and 80 to 100% under setting [2].
As to `CCOC(C)(c1cncnc1)c1ccc(-c2ccc(OC(F)(F)F)cc2F)cn1` (stereo not drawn) [Compound 215], the pest or weed control at 100 g/ha is, setting by setting: under setting [1], below 40%; under setting [2], below 40%.
On to `CC(C)(C)C(O)(c1cncc(F)c1)c1ccc(-c2ccc(OC(F)(F)F)cc2)cn1` (stereo not drawn) [Compound 202], for which the pest or weed control at 100 g/ha reads like this: under setting [1], 60 to 79%; under setting [2], 60 to 79%.
For the compound `COC(c1cncnc1)(c1ccc(-c2ccc(OC(F)(F)F)cc2F)cn1)C(C)(C)C` (stereo not drawn) [Compound 211], the pest or weed control at 100 g/ha runs as follows: under setting [1], 80 to 100%; under setting [2], 80 to 100%.
As for `CCC(OC)(c1cncnc1)c1ccc(-c2ccc(OC(F)(F)F)cc2)cn1` (stereo not drawn) [Compound 213], the pest or weed control at 100 g/ha runs as follows: under setting [1], 60 to 79%; under setting [2], 60 to 79%.
In the case of `CCOC(c1cncnc1)(c1ccc(-c2ccc(OC(F)(F)F)cc2F)cn1)C(C)(C)C` (stereo not drawn) [Compound 220], the pest or weed control at 100 g/ha runs as follows: under setting [1], below 40%; under setting [2], 80 to 100%.
As to `COC(c1cncnc1)(c1ccc(-c2ccc(OC(F)(F)F)cn2)cn1)C(C)(C)C` (stereo not drawn) [Compound 173], the pest or weed control at 100 g/ha was in the range of 80 to 100% under setting [1] and 80 to 100% under setting [2].
For the compound `CC(C)(C)C(O)(Cc1cncnc1)c1ccc(-c2ccc(C3(C#N)CC3)cc2)cn1` (stereo not drawn) [Compound 178], the pest or weed control at 100 g/ha reads like this: under setting [1], below 40%; under setting [2], 60 to 79%.
On the same counts, the results for `C#CCOC(c1cncnc1)(c1ccc(-c2ccc(OC(F)(F)F)cc2F)cn1)C(C)(C)C` (stereo not drawn) [Compound 189] are 40 to 59% and 80 to 100%.
As to `C#CCOC(O)(c1cncnc1)c1ccc(-c2ccc(OC(F)(F)F)cc2)cn1` (stereo not drawn) [Compound 243], the pest or weed control at 100 g/ha is below 40% under setting [1] and 80 to 100% under setting [2].
As for `CC(C)C(O)(c1cncnc1)c1ccc(-c2ccc(OC(F)(F)F)cc2F)cn1` (stereo not drawn) [Compound 230], the pest or weed control at 100 g/ha is, setting by setting: under setting [1], below 40%; under setting [2], 80 to 100%.
